Reference: patent US5281710A, “Dynemicin analogs: synthesis, methods of preparation and use” (The Scripps Research Institute, priority 1992, dated 1994)
“Also recorded” adds a separate entry of the source. Like-named read-outs stand apart in the source and are kept apart here.

Key:
cancer cell lines = test: cells; format: cell-based; conditions: for cytotoxicity (qualitative): cancer cell lines
Description: (§1) In addition to the screening already discussed, several of the before-described compounds and chimeras were screened against several or all of a panel of ten to twenty-five cancerous cell lines as target cells and seven "normal" cell preparations. This screening utilized a sulforhodamine B cytotoxidity assay as discussed below.
SULFORHODAMINE B CYTOTOXICITY ASSAY
a. Stock drug solutions were prepared by dissolving drug in the appropriate solvent (determined during chemical characterization studies) and sterile filtering the drug-solvent solution through a sterile 0.2μ filter unit. An aliquot was taken from each filtered drug solution and the O.D. was measured to determine the drug concentration.
f. Incubate (37° C., 5-10 percent CO2 in humidified incubator) plates for a total of 72 hours. Check plates at 24 hour intervals microscopically for signs of cytotoxicity.
(§2) IC50 values; i.e., the concentration of Compound required to kill one-half of the treated cells, were then calculated.
All other cells or cell lines were obtained from the American Type Culture Collection (ATCC) (all except CHO cells are human or mouse cancer cell lines as described by the ATC).
Tables 1 and 2 herein below provide average IC50 data from five to all ten of the above cancer cells lines for fused ring enediyne compounds disclosed herein. Those tables provide a generic structure and a description of the R group of that generic structure for each compound. Compound numbers as noted hereinbefore are also provided. Table 3 contains data for two fused-ring enediyne compounds (Compounds 47 and 120) as well as data for six chimers. Table 4 contains cancer cell and noraml cell cytotoxicity data for one select fused ring enediyne, Compound 153 against a number of "normal" cell preparations and tumor cell lines. Table 5 contains cancer cell and normal cell cytotoxicity data for another fused ring enediyne, Compound 250 against a similar panel of cells.

[1] = tested on: MOLT-4 (Leukemia) cell line; test: cells; format: cell-based; conditions: for potency against Molt-4 relative to the other cell lines: Molt-4 vs average of other cell lines; for IC50: read-out: IC50
Description: as §1, §2

Chemical stability = format: physicochemical
φX174 Form I DNA = test: φX174 supercoiled DNA cleavage, agarose gel; format: biochemical
Description: The ethereal solution of Compound 40 produced by the LiAlH4 reduction of Compound 21 (39 mg, 0.10 mmol) was evaporated in vacuo to dryness and the residue dissolved in THF (4 mL) to give a 25 mM solution of Compound 40, assuming complete conversion of Compound 21. […]
Thus, a vial containing a 50 micromolar per base pair solution […] of the same buffer solution and 2.0 microliters of a 5.0 millimolar ethanol solution of Compound 40.
[…] A 2.0 microliter portion of glycerol loading buffer solution containing bromothymol blue indicator was added to each vial. A 10 microliter aliquot was then drawn from each. Gel electrophoresis analysis of the aliquots was performed using a 1.0 percent agarose gel with ethidium bromide run at 115 volts for 1 hour. DNA cleavage was indicated by the formation of nicked relaxed circular DNA (form II) or linearized DNA (form III), which was detected by visual inspection of the gel under 310 nanometer ultraviolet light using ethidium bromide.

[2] = Average data obtained from 5~10 cell lines, read-out: IC50 (average)
[3] = 5.0 mM, pH 8.5, 36 hours, 37° C.

COc1ccc2c(c1)C13OC14CCCC3C#C/C=C\C#CC4N2C(=O)OCCS(=O)(=O)c1ccc2ccccc2c1 (stereo not shown) [Compound 41d]
IC50 (cancer cell lines; [2]): 0.13 µM | potency against Molt-4 relative to the other cell lines [1]: 10,000 times

O=C(OCCSc1ccccc1)N1c2ccccc2[C@@]23O[C@]24CCC[C@H]3C#Cc2cc3ccccc3cc2C#C[C@H]14 (relative stereo) [Compound 88]
IC50 (cancer cell lines; [2]): 50 µM

COc1ccc2c(c1)C13OC14CCCC3C#C/C=C\C#CC4N2C(=O)OCCS(=O)(=O)c1cccc2ccccc12 (stereo not shown) [Compound 41c]
IC50 (cancer cell lines; [2]): 0.2 µM | potency against Molt-4 relative to the other cell lines [1]: 10,000 times

O=C(OCC[S+]([O-])c1ccccc1)N1c2ccccc2[C@@]23O[C@]24CCC[C@H]3C#C/C=C\C#C[C@H]14 (relative stereo) [Compound 21b]
IC50 (cancer cell lines; [2]): 32 µM

C1#CC2Nc3ccccc3C34OC23CCCC4C#Cc2cc3ccccc3cc21 (stereo not shown) [Compound 87a]
chemical stability (Chemical stability): stable at 25 °C

CC(=O)O[C@]12C#C/C=C\C#C[C@@H]3N(C(=O)Oc4ccccc4)c4cc(O)ccc4[C@]14O[C@@]34CCC2 (relative stereo) [Compound 171]
DNA cleavage (φX174 Form I DNA; pH 8.5, 24 or 48 hours, 37° C.): strong activity

COC12C#C/C=C\C#CC3N(C(=O)OCCS(=O)(=O)c4ccccc4)c4ccccc4C14OC34CCC2 (stereo not shown) [Compound 47]
DNA cleavage (φX174 Form I DNA; 5 mM, pH 8.0, 24 hours): diminished activity against DNA | IC50 (cancer cell lines; [2]): 5 µM

O=C(Oc1ccccc1)N1c2cc(OCc3ccccc3[N+](=O)[O-])ccc2C23OC24CCCC3(O)C#C/C=C\C#CC14 (stereo not shown) [Compound 43]
DNA cleavage (φX174 Form I DNA; [3]): inert | chemical stability (Chemical stability): rather labile

O=C(OCCS(=O)(=O)c1ccccc1)N1c2ccccc2[C@@]23O[C@]24CCC[C@H]3C#Cc2ccccc2C#C[C@H]14 (relative stereo) [Compound 70]
DNA cleavage (φX174 Form I DNA; basic conditions, pH 9.0): exhibited DNA cleaving properties | IC50 (cancer cell lines; [2]): 3.2 µM | cytotoxicity (qualitative) (cancer cell lines): potent anticancer activity against a variety of cell lines

O=C(OCCSc1ccccc1)N1c2ccccc2[C@@]23O[C@]24CCC[C@H]3C#C/C=C\C#C[C@H]14 (relative stereo) [Compound 21a]
IC50 (cancer cell lines; [2]): 63 µM

CCNC1COC(OC2C(OCCOC34C#CC=CC#CC5N(C(=O)OCCS(=O)(=O)c6ccccc6)c6ccccc6C36OC56CCC4)OC(C)C(=NOC3CC(O)C(SC(=O)c4c(C)c(I)c(OC5OC(C)C(O)C(OC)C5O)c(OC)c4OC)C(C)O3)C2O)CC1OC (stereo not shown) [Compound 126a]
IC50 (cancer cell lines; [2]): 44 µM

O=C(Oc1ccccc1)N1c2cc(O)ccc2C23OC24CCCC3(O)C#C/C=C\C#CC14 (stereo not shown) [Compound 42]
cleavage of double stranded DNA (φX174 Form I DNA; 2 mM): shown to cause cleavage of double stranded DNA | DNA cleavage (φX174 Form I DNA; 5 mM, pH 8.0, 24 hours): significant DNA cleavage | DNA cleavage (φX174 Form I DNA; [3]): significant DNA cleaving action | chemical stability (Chemical stability): led to decomposition

O=C(OCCS(=O)(=O)c1ccccc1)N1c2ccccc2[C@@]23O[C@]24CCC[C@H]3C#Cc2cc3ccccc3cc2C#C[C@H]14 (relative stereo) [Compound 80]
DNA cleavage (φX174 Form I DNA; basic conditions, pH 9.0): exhibited DNA cleaving properties | IC50 (cancer cell lines; [2]): 1.6 µM | cytotoxicity (qualitative) (cancer cell lines): potent anticancer activity against a variety of cell lines

C1#CC2Nc3ccccc3C34OC23CCCC4C#Cc2ccccc21 (stereo not shown) [Compound 76a]
chemical stability (Chemical stability): stable at 25 °C

CC(=O)OC12C#C/C=C\C#CC3N(C(=O)Oc4ccccc4)c4cc(O)ccc4C14OC34CCC2 (stereo not shown) [Compound 201]
DNA cleavage (φX174 Form I DNA; [3]): significant DNA cleaving action

C1#CC2Nc3ccccc3C34OC23CCCC4C#C/C=C\1 (stereo not shown) [Compound 40]
DNA cleavage (φX174 Form I DNA; 5 mM, pH 8.0, 24 hours): significant DNA cleavage | DNA cleavage (φX174 Form I DNA; pH 7.4 phosphate, 20 volume percent THF, 24 hours, 100-5000 μM): cleavage | chemical stability (Chemical stability): too labile for isolation; also recorded: decomposed at that temperature

O=C1C=CC23OC24C2(O)C#C/C=C\C#CC(N(C(=O)Oc5ccccc5)C3=C1)C4(O)CCC2 (stereo not shown) [Compound 54]
DNA cleaving activity (φX174 Form I DNA): exhibited DNA cleaving activity | DNA cleavage (φX174 Form I DNA; 5 mM, pH 8.0, 24 hours): significant DNA cleavage | DNA cleavage (φX174 Form I DNA; [3]): exhibited DNA cleaving capability | chemical stability (Chemical stability): sensitive but stable molecule under neutral conditions

C=CS(=O)(=O)c1ccccc1 [phenyl vinyl sulfone, reference compound]
DNA cleavage (φX174 Form I DNA; 1.0 mM): no DNA cleavage | DNA cleavage (φX174 Form I DNA; 5.0 mM, pH 8.5 and 9.0, 48 hours, 37° C.): Form II DNA

COC12C#C/C=C\C#CC3Nc4ccccc4C14OC34CCC2 (stereo not shown) [Compound 48]
chemical stability (Chemical stability): quite stable under basic or neutral conditions

COC(=O)COC12C#C/C=C\C#CC3N(C(=O)Oc4ccccc4)c4ccccc4C14OC34CCC2 (stereo not shown) [Compound 24b]
IC50 (cancer cell lines; [2]): 5 µM

O=C(Oc1ccccc1)N1c2ccccc2[C@@]23O[C@]24CCC[C@@]3(O)C#Cc2ccccc2C#C[C@H]14 (relative stereo) [Compound 74]
IC50 (cancer cell lines; [2]): 20 µM

COc1cccc2c1C(=O)c1c(O)c3c(c(O)c1C2=O)C[C@@](O)(C(=O)CO)C[C@@H]3O[C@H]1C[C@H](N)[C@H](O)[C@H](C)O1 [Doxorubicin, reference compound]
IC50 (cancer cell lines; cancer cells, control drugs, read-out: Range of Average IC50 Values, Cancer Cells): 0.00016 to 0.098 µM

O=C(Oc1ccccc1)N1c2ccccc2[C@@]23O[C@]24CCC[C@@]3(O)C#Cc2cc3ccccc3cc2C#C[C@H]14 (relative stereo) [Compound 85]
IC50 (cancer cell lines; [2]): 20 µM

CC(C)(C)C(=O)Oc1ccc2c(c1)N(C(=O)Oc1ccccc1)C1C#C/C=C\C#CC3CCCC14OC234 (stereo not shown) [Compound 59b]
DNA cleavage (φX174 Form I DNA; [3]): inert | IC50 (cancer cell lines; [2]): 0.2 µM | potency against Molt-4 relative to the other cell lines [1]: 10,000 times

CO[C@]12C#C/C=C\C#C[C@@H]3N(C(=O)Oc4ccccc4)c4ccccc4[C@]14O[C@@]34CCC2 (relative stereo) [Compound 46]
IC50 (cancer cell lines; [2]): 63 µM

O=C(Oc1ccccc1)N1c2ccccc2C23OC24CCCC3C#Cc2cc3ccccc3cc2C#CC14 (stereo not shown) [Compound 87]
IC50 (cancer cell lines; [2]): 3.2 µM

CC(=O)Oc1ccc2c(c1)N(C(=O)Oc1ccccc1)C1C#C/C=C\C#CC3(OC(C)=O)CCCC14OC234 (stereo not shown) [Compound 202]
DNA cleavage (φX174 Form I DNA; [3]): inert

COc1ccc2c(c1)C13OC14CCCC3C#C/C=C\C#CC4N2C(=O)OCCS(=O)(=O)c1ccccc1 (stereo not shown) [Compound 41b]
IC50 (cancer cell lines; [2]): 0.25 µM | potency against Molt-4 relative to the other cell lines [1]: 10,000 times

COc1ccc2c(c1)[C@@]13O[C@]14CCC[C@H]3C#C/C=C\C#C[C@@H]4N2C(=O)Oc1ccccc1 (relative stereo) [Compound 41a]
IC50 (cancer cell lines; [2]): 20 µM

CCNC1COC(OC2C(OCCOC34C#CC=CC#CC5N(C(=O)OCCS(=O)(=O)c6ccccc6)c6ccccc6C36OC56CCC4)OC(C)C(NOC3CC(O)C(SC(=O)c4c(C)c(I)c(OC5OC(C)C(O)C(OC)C5O)c(OC)c4OC)C(C)O3)C2O)CC1OC (stereo not shown) [Compound 127a]
IC50 (cancer cell lines; [2]): 0.14 µM | cytotoxicity (qualitative) (cancer cell lines): particularly effective | IC50 ([1]; Molt-4 leukemia cell line): 1 nM | potency against Molt-4 relative to the other cell lines [1]: about 100 times

COC12C#C/C=C\C#CC3N(C(=O)Oc4ccccc4)c4cc(O)ccc4C14OC34CCC2 (stereo not shown) [Compound 55]
DNA cleavage (φX174 Form I DNA; 5 mM, pH 8.0, 24 hours): diminished activity against DNA

O=C(OCCS(=O)(=O)c1ccccc1)N1c2ccccc2C23OC24CCCC3(OCCO)C#C/C=C\C#CC14 (stereo not shown) [Compound 120]
IC50 (cancer cell lines; [2]): 40 µM

CCNC1COC(OC2C(OCCOC34C#CC=CC#CC5N(C(=O)OCCS(=O)(=O)c6ccccc6)c6ccccc6C36OC56CCC4)OC(C)C(NOC3CC(O)C(SC(=O)c4c(C)c(I)c(OC5OC(C)C(O)C(OC)C5O)c(OC)c4OC)C(C)O3)C2O)CC1OC (stereo not shown) [Compound 127b]
IC50 (cancer cell lines; [2]): 7.6 µM | cytotoxicity (qualitative) (cancer cell lines): particularly effective | IC50 ([1]; Molt-4 leukemia cell line): 0.1 nM

O=C(Oc1ccccc1)N1c2ccccc2C23OC24CCCC3C#Cc2ccccc2C#CC14 (stereo not shown) [Compound 76]
IC50 (cancer cell lines; [2]): 7.9 µM

CCNC1COC(OC2C(OCCOC34C#CC=CC#CC5N(C(=O)OCCS(=O)(=O)c6ccccc6)c6ccccc6C36OC56CCC4)OC(C)C(=NOC3CC(O)C(SC(=O)c4c(C)c(I)c(OC5OC(C)C(O)C(OC)C5O)c(OC)c4OC)C(C)O3)C2O)CC1OC (stereo not shown) [Compound 126b]
IC50 (cancer cell lines; [2]): 8.7 µM

O=C(OCCSc1ccccc1)N1c2ccccc2[C@@]23O[C@]24CCC[C@H]3C#Cc2ccccc2C#C[C@H]14 (relative stereo) [Compound 77]
IC50 (cancer cell lines; [2]): 36 µM

CC(C)(C)C(=O)Oc1ccc2c(c1)N(C(=O)Oc1ccccc1)C1C#C/C=C\C#CC3(O)CCCC14OC234 (stereo not shown) [Compound 59a]
DNA cleavage (φX174 Form I DNA; [3]): inert | IC50 (cancer cell lines; [2]): 0.79 µM | IC50 ([1]; Homo sapiens, MOLT-4, Molt-4 leukemia cell line): 98 nM
